Measured values taken from patent US10450549B2, “Aryloxyphenoxypropionate tolerance in turfrgass species and use of AAD1 as a selectable marker” (Dow AgroSciences, LLC, priority 2004, dated 2019).
Where two headings read alike, the source gives them in different places.

Tests used:
[1] = system: AAD1 (v3)-transformed T0 corn events; assay: Tolerance of T0 AAD1 (v3) corn plants (pDAB3404) to postemergence AOPP herbicides; type: in vivo
AAD1 (v1) [2] = molecular target: T1, AAD1 (v1) (Sphingobium herbicidovorans, UniProt Q8KSC8); assay: Colorimetric phenol detection assay of AAD1 (v1) activity (purified enzyme or E. coli extract); type: biochemical
T1 construct: made in house; host or cells: E. coli BL-21 Star (DE3), plasmid pDAB3203

[3] = system: Hi-II corn grown from seed; assay: Lethal dose of AOPP herbicides on non-transformed Hi-II corn
[4] = system: Non-transformed Hi-II callused suspension tissue; assay: Dose response of non-transformed maize callus tissue; type: cell-based
wt ARBTH = assay: In vitro plate test of herbicide cross resistance: wild-type Arabidopsis; type: in vivo, Arabidopsis thaliana; conditions: 7 days
Procedure: (§1) The ability of AAD1 (v3) to provide resistance to other aryloxyphenoxyalkanoate herbicides in transgenic Arabidopsis was determined using a modified in vitro plate assay. Seeds from wild-type Arabidopsis thaliana as well as Arabidopsis thaliana containing the plant optimized AAD1 (v3) gene (T4 homozygous plants id=PAAD1.315.064) were sterilized by agitating for 10 min in a 50% bleach solution. These seeds were then rinsed four times with sterile water to remove the bleach.
(§2) Dose response assays utilized a nutrient media (see below) supplemented with various rates of test compounds. The test compounds were added to the heated media (55° C.) as concentrated solutions in DMSO. Control wells had the appropriate amount of DMSO without any additional compound. The final concentration of DMSO never exceeded 1% (v/v). After thorough mixing, a 6 mL aliquot of the warm media containing the appropriate concentration of compound was added to each well of a 6-well, flat bottom, polystyrene tissue culture tray (Falcon 353046, Becton Dickson and Company, Franklin Lakes, N.J.). After the media solidified, approximately 20 to 30 Arabidopsis seeds were applied on top of the solidified media and the remaining 2 mL of media was poured over the seeds. The plates were lightly agitated to disperse the seeds, covered and allowed to cool until the media had completely solidified. The plates were incubated for 7 days at 25° C. under continual fluorescent lighting (75 μE m^−2 s^−1). Nutrient Media Composition was as described in Example 2.2 and in Somerville and Orgen (1982).
(§3) Assessment of Growth Reduction. The apical portion of the Arabidopsis plants grown in the treated media was assessed visually relative to the apical portion of the plants grown in the media containing only DMSO. Values were recorded as % growth reduction. Assessments of root growth inhibition of the Arabidopsis plants grown in the treated media were achieved by carefully extracting the plants from the media and measuring the length of the root. These root lengths were then compared to the root length of the control plants to determine a % growth reduction. A minimum of five plants were assessed for each treatment. The values recorded are an average of all the plants assessed. The calculated concentration to reach 50% inhibition effect (I50) were determined for both root and shoots of wildtype and AAD1-transformed Arabidopsis. The ratios of resistant to sensitive biotypes are included in Table 19. A ratio>2 for both root and shoot measurements generally signifies significant resistance. The higher the ratio, the greater the level of resistance. […] The broad phenoxy auxin resistance is the first reported in planta.

AAD1 (v1) [5] = molecular target: T1, AAD1 (v1); assay: HPLC analysis of herbicide degradation by AAD1 (v1) cell extract; type: biochemical; conditions: AAD1 (v1) cell extract, same conditions as 2,4-D
PAAD1.315.064 ARBTH = assay: In vitro plate test of herbicide cross resistance: homozygous T4 AAD1 (v3) Arabidopsis; type: in vivo, Arabidopsis thaliana
Procedure: as §1, §2, §3

[6] = system: transformed-control line containing PAT and Cry1F; assay: Foliar-applied auxinic herbicides on control (PAT/Cry1F, wildtype) Arabidopsis, % injury 14 DAT; type: in vivo, Arabidopsis thaliana; conditions: PatCry1f - Control
Procedure: (§4) The ability of AAD1 (v3) to provide resistance to other aryloxyphenoxyalkanoate auxin herbicides in transgenic Arabidopsis was determined by foliar application of various substrates described in Example 6.8. T4 generation Arabidopsis seed, homozygous for AAD1 (v3) (line AAD1.01.315.076) was stratified, and sown into selection trays much like that of Arabidopsis (Example 6.4). A transformed-control line containing PAT and the insect resistance gene Cry1F was planted in a similar manner. Seedlings were transferred to individual 3-inch pots in the greenhouse. All plants were sprayed with the use of a track sprayer set at 187 L/ha. […] All applications were formulated in 200 mM Hepes buffer (pH 7.5). Each treatment was replicated 3-4 times. Plants were evaluated at 3 and 14 days after treatment and are averaged over two experiments.

[7] = system: T4 Arabidopsis homozygous for AAD1 (v3) (line AAD1.01.315.076); assay: Foliar-applied auxinic herbicides on homozygous T4 AAD1 (v3) Arabidopsis, % injury 14 DAT; type: in vivo, Arabidopsis thaliana; conditions: AAD1.01.315.076.T4 homozygous AAD1 plants
Procedure: as §4

[8] = system: Arabidopsis thaliana var. Columbia; assay: Arabidopsis plate test bioassay for herbicide degradation; type: in vivo; conditions: for IC50: Arabidopsis thaliana, 168 h
[9] = system: DAS Soybean cell suspensions; assay: Glufosinate selection of soybean suspension cells; type: cell-based
Procedure: The DAS Soybean cell suspensions were cultured on a 3 d cycle with 10 ml of settled suspension volume transferred to 115 ml of fresh liquid medium. Settled cell volume was determined by allowing the cell suspension to settle for 2 min in the 125-mL flask after vigorous swirling and then drawing cells from the bottom of the flask with a wide bore 10 ml pipette. The flasks were then transferred to orbital shakers at 140 rpm.
Aliquots of 4 ml of the suspension cells at 0.72 OD^600 was transferred along with 200 μM acetosyringone (AS) onto a 100×25 sterile Petri plate. EHA105 Agrobacterium suspension at a density of 1.2 OD^650 in a 100 μL volume was added and mixed well. The Agrobacterium and suspension cell mixture was swirled well and the plate was transferred to dark growth chamber where the temperature was maintained at 25° C.
13.2.1—Selection of soybean suspension cells and isolation of transformed colonies. After 4 days of co-cultivation the plate was swirled again to mix the suspension well and a 1.5 ml aliquot was transferred to the selection medium and spread on the gel medium on a 100×15 ml Petri-plate. […] After a 10 min drying in the hood the plates were incubated for 4 weeks in dark at 28° C. Colonies appeared in selection and a total of 11 colonies were transferred to fresh medium from 3 different experiments and maintained for 3-4 months. […]

wildtype KY 160 tobacco = assay: Wildtype tobacco response to phenoxy auxin herbicides; type: in vivo, Nicotiana tabacum; conditions: KY160-Wildtype
Procedure: Each treatment was replicated 1-3 times. Injury ratings were recorded 3 and 14 DAT. […] In several events, some initial auxinic herbicide-related epinasty occurred at doses of 800 g ae/ha or less. […] All events suffered some level temporary auxinic damage 3 DAT when treated with 3200 g ae/ha. Some leaf burning also occurred at this high rate due to the acidity of the spray solution. Future trials at high 2,4-D rates were buffered. […] Some events were inconsistent in response among replicates and were deemed “variable” (Table 27).
(§5) Two AAD1 (v3) tobacco lines (event 721(2)-013.010 and 721(3)-008.005) were chosen from the T0 generation. The T1 seed was stratified, and sown into selection trays much like that of Arabidopsis (Example 6.4), followed by selective removal of untransformed nulls in this segregating population with 280 g ai/ha glufosinate (PAT selection). Survivors were transferred to individual 3-inch pots in the greenhouse. […] Improved consistency of response is anticipated in T1 plants not having come directly from tissue culture. These plants were compared against wildtype KY 160 tobacco. All plants were sprayed with the use of a track sprayer set at 187 L/ha. […] All applications were formulated in 200 mM Hepes buffer (pH 7.5). Each treatment was replicated 4 times. Plants were evaluated at 3 and 14 days after treatment. Plants were assigned injury rating with respect to stunting, chlorosis, and necrosis. The T1 generation is segregating, so some variable response is expected due to difference in zygosity. (Table 28).

[10] = system: AAD1 (v3) T1 tobacco (events 721(2)-013.010 and 721(3)-008.005); assay: Segregating AAD1 T1 tobacco response to phenoxy auxin herbicides; type: in vivo, Nicotiana tabacum
Excerpt: as §5

[11] = purified AAD1 (v1), 1 mM substrate
[12] = resistant to sensitive biotype, >2 signifies resistance

T1 sequence (Q8KSC8 whole entry): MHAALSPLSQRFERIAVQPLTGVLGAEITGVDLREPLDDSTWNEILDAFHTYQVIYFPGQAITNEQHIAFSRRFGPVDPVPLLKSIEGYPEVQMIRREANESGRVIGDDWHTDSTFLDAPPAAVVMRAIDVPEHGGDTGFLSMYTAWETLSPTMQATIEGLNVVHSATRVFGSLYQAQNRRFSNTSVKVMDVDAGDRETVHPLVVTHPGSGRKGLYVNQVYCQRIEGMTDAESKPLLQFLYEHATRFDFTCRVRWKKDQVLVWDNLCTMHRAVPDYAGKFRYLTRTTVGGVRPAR

C[C@@H](Oc1ccc(Oc2ccc(C#N)cc2F)cc1)C(=O)O [cyhalofop]
% Injury 14 DAT ([1]; 62.5 g ae/ha, construct 3404 event 001 clone 018): 0% | % Injury 14 DAT ([1]; 62.5 g ae/ha, construct 3404 event 022 clone 024): 0% | % Injury 14 DAT ([1]; 62.5 g ae/ha, construct 3404 event 038 clone 018): 0% | % Injury 14 DAT ([1]; 125 g ae/ha, construct 3404 event 022 clone 018): 0% | A510, AAD1 (AAD1 (v1) [2]; Table 4, substrate 1 mM, 1 μg purified AAD1 (v1) per 0.16 ml assay): 0.114 | A510, AAD1 (10x) (AAD1 (v1) [2]; Table 4, substrate 1 mM, 10 μg purified AAD1 (v1) per 0.16 ml assay): 1.26 | activity relative to the dichlorprop rate (AAD1 (v1) [2]; [11]): 21% | activity relative to the quizalofop rate (AAD1 (v1) [2]; [11]): 27% | lethal dose ([3]; Clincher + 1% COC (v/v)): 62.5 g ae/ha) | rate that effectively kills (>95% injury) three to four leaf Hi-II corn ([3]; postemergence, commercial formulations): 62.5 g ae/ha

Oc1ccc(Oc2ncc(C(F)(F)F)cc2Cl)cc1 [haloxyfop phenol]
callus growth relative to control lacking haloxyfop phenol ([4]; 300 nM): equal to or greater than the control

O=C(O)COc1nc(Cl)c(Cl)cc1Cl [Triclopyr]
wt ARBTH root 150 (wt ARBTH; root): 0.02 ppm | wt ARBTH shoot 150 (wt ARBTH; shoot): 0.2 ppm | enzyme activity on substrate (HPLC) (AAD1 (v1) [5]): No enzyme activity was detected | root ratio (PAAD1.315.064 ARBTH; [12]): 1 | shoot ratio (PAAD1.315.064 ARBTH; [12]): 0.2 | resistance afforded by AAD1 (v3) in plate test (PAAD1.315.064 ARBTH; root and shoot assessment): did not effectively protect | PAAD1.315.064 ARBTH root 150 (PAAD1.315.064 ARBTH; root, 7 days): 0.02 ppm | PAAD1.315.064 T3 ARBTH shoot 150 (PAAD1.315.064 ARBTH; shoot, 7 days): 0.04 ppm | Ave % Injury 14DAT ([6]; 50 g ae/ha foliar): 36% | Ave % Injury 14DAT ([6]; 200 g ae/ha foliar): 65% | Ave % Injury 14DAT ([6]; 800 g ae/ha foliar): 84% | Ave % Injury 14DAT ([6]; 3200 g ae/ha foliar): 95% | Ave % Injury 14DAT ([7]; 50 g ae/ha foliar): 31% | Ave % Injury 14DAT ([7]; 200 g ae/ha foliar): 58% | Ave % Injury 14DAT ([7]; 800 g ae/ha foliar): 74% | Ave % Injury 14DAT ([7]; 3200 g ae/ha foliar): 97% | IC50 ([8]; AAD1 (v1)-expressing lysate, nominal concentration, read-out: GR50, Chemical + AAD1 v1): 1000 nM | IC50 ([8]; root length, 7 days, read-out: GR50, Chemical alone): 255 nM | GR50 ratio ([8]; enzyme-expressing lysate vs blank vector, ≥ 2 = threshold for activity loss): 1

N#Cc1ccc(Oc2ccc(O)cc2)c(F)c1 [cyhalofop phenol]
callus growth relative to control without cyhalofop phenol ([4]; 1 μM): 76%

CP(=O)(O)CCC(N)C(=O)O (stereo not drawn) [glufosinate ammonium]
response of non-transformed suspension cells ([9]; 0.5 mg/l): sensitive | response of transformed colonies ([9]; 5 mg/L (5× concentration), up to 4 months): resistant

C[C@@H](Oc1ccc(Cl)cc1Cl)C(=O)O [R-dichlorprop]
kcat (AAD1 (v1) [2]; purified AAD1 (v1)): 26.1 min⁻¹ | Km (AAD1 (v1) [2]; purified AAD1 (v1), 25 mM MOPS pH 6.8, 25° C., read-out: Km ± SE): 75 ± 10 µM | Vmax ± SE (AAD1 (v1) [2]; purified AAD1 (v1), Michaelis-Menten fit): 0.79 ± 0.03 μmol min^−1 mg^−1 AAD1 | Average % Injury of Replicates 14 DAT (wildtype KY 160 tobacco; 560 g ae/ha): 70% | Average % Injury of Replicates 14 DAT (wildtype KY 160 tobacco; 1120 g ae/ha): 75% | Average % Injury of Replicates 14 DAT (wildtype KY 160 tobacco; 2240 g ae/ha): 88% | Average % Injury of Replicates 14 DAT (wildtype KY 160 tobacco; 4480 g ae/ha): 95% | Average % Injury of Replicates 14 DAT ([10]; 560 g ae/ha, 721(2)013.010 (medium tolerance in T0 generation)): 5% | Average % Injury of Replicates 14 DAT ([10]; 560 g ae/ha, 721(3)008.005 (high tolerance in T0 generation)): 0% | Average % Injury of Replicates 14 DAT ([10]; 1120 g ae/ha, 721(2)013.010 (medium tolerance in T0 generation)): 5% | Average % Injury of Replicates 14 DAT ([10]; 1120 g ae/ha, 721(3)008.005 (high tolerance in T0 generation)): 0% | Average % Injury of Replicates 14 DAT ([10]; 2240 g ae/ha, 721(2)013.010 (medium tolerance in T0 generation)): 5% | Average % Injury of Replicates 14 DAT ([10]; 2240 g ae/ha, 721(3)008.005 (high tolerance in T0 generation)): 0% | Average % Injury of Replicates 14 DAT ([10]; 4480 g ae/ha, 721(2)013.010 (medium tolerance in T0 generation)): 10% | Average % Injury of Replicates 14 DAT ([10]; 4480 g ae/ha, 721(3)008.005 (high tolerance in T0 generation)): 5% | injury of T1 AAD1 (v3) tobacco ([10]; rates below 1× field rates (560 g ae/ha), either event): No injury was observed | Ave % Injury 14DAT ([6]; 50 g ae/ha foliar): 31% | Ave % Injury 14DAT ([6]; 200 g ae/ha foliar): 73% | Ave % Injury 14DAT ([6]; 800 g ae/ha foliar): 89% | Ave % Injury 14DAT ([6]; 3200 g ae/ha foliar): 95% | Ave % Injury 14DAT ([7]; 50 g ae/ha foliar): 3% | Ave % Injury 14DAT ([7]; 200 g ae/ha foliar): 3% | Ave % Injury 14DAT ([7]; 800 g ae/ha foliar): 3% | Ave % Injury 14DAT ([7]; 3200 g ae/ha foliar): 3%
